Data taken from ChEMBL document CHEMBL5303304, “EUbOPEN Chemogenomics Library - IncuCyte” (2023).

Columns and labels:
Type in all cases: toxicity, cell-based
[1] = tested on: U2OS; experiment: Incucyte cell viability with U2OS; settings: human, 10 µM, compound concentration 10 uM
[2] = tested on: Fibroblast; experiment: Incucyte cell viability with human fibroblast; settings: 10 µM, compound concentration 10 uM
[3] = tested on: HEK-293T; experiment: Incucyte cell viability with HEK293T; settings: human, 10 µM, compound concentration 10 uM
Note: unitless GR value; below 1 slowed growth and below 0 cell loss.

SMILES | Growth Rate ([1]; 0 h, replicate number 1) | Growth Rate ([1]; 6 h, replicate number 1) | Growth Rate ([1]; 12 h, replicate number 2) | Growth Rate ([1]; 18 h, replicate number 1) | Growth Rate ([1]; 24 h, replicate number 1) | Growth Rate ([2]; 0 h, replicate number 1) | Growth Rate ([2]; 6 h, replicate number 1) | Growth Rate ([2]; 6 h, replicate number 2) | Growth Rate ([2]; 12 h, replicate number 2) | Growth Rate ([3]; 0 h, replicate number 1) | Growth Rate ([3]; 0 h, replicate number 2) | Growth Rate ([3]; 6 h, replicate number 1) | Growth Rate ([1]; 0 h, replicate number 2) | Growth Rate ([1]; 6 h, replicate number 2) | Growth Rate ([2]; 0 h, replicate number 2) | Growth Rate ([2]; 12 h, replicate number 1) | Growth Rate ([2]; 18 h, replicate number 1) | Growth Rate ([2]; 24 h, replicate number 1) | Growth Rate ([3]; 12 h, replicate number 1) | Growth Rate ([2]; 24 h, replicate number 2) | also measured
CN(C)C(=O)Cn1cc(-c2ccc(-c3cncc4ccccc34)cc2)cn1 | 0.61 | 0.46 | 0.83 | 0.99 | 0.9 | -1 | 0.8 | -0.33 | 0.98 | 0.29 | 0.39 | 0.92 |  |  |  |  |  |  |  |  | 
CCn1c(CNC(=O)c2ncc(C)nc2N)[n+](CC)c2ccc(C(=O)N(C)CCN(C)C)cc21.Cl.Cl.[Cl-] |  | 0.58 | 0.9 |  | 0.97 | -1 | 0 |  |  | 0.03 |  |  | 0.31 | 0.99 | -0.3 | 0.87 | 0.98 | 0.9 | 0.97 |  | Growth Rate ([1]; 12 h, replicate number 1): 0.62; Growth Rate ([3]; 24 h, replicate number 1): 1
CO[C@H]1CC[C@H](N(c2cc(F)c(Oc3ncc(Cn4nccn4)cc3C(F)(F)F)cc2C(=O)O)C(=O)[C@H]2CC[C@H](C)CC2)CC1 | 0.66 | 0.6 | 0.82 |  |  | -1 | 0.07 | -0.41 |  | 0.27 | -0.25 |  |  | 0.76 |  |  | 0.76 | 0.77 |  | 0.67 | Growth Rate ([1]; 18 h, replicate number 2): 1; Growth Rate ([1]; 24 h, replicate number 2): 0.87
COc1ccc2c(O[C@@H]3C[C@H]4C(=O)N[C@]5(C(=O)NS(=O)(=O)C6(C)CC6)CC5/C=C\CCCCC[C@H](NC(=O)c5ccn(C)n5)C(=O)N4C3)cc(OC(C)C)nc2c1C (some centres not stated) |  |  | 0.63 | 0.99 |  |  |  | -0.88 |  | 1 | 0.49 | 0.89 | -0.46 | 0.93 | 0.85 |  | 0.9 | 0.9 | 0.8 | 0.88 | Growth Rate ([1]; 18 h, replicate number 2): 0.79; Growth Rate ([1]; 24 h, replicate number 2): 0.78; Growth Rate ([2]; 18 h, replicate number 2): 0.84; Growth Rate ([3]; 18 h, replicate number 1): 0.9; Growth Rate ([3]; 24 h, replicate number 1): 0.9
Cc1nc2ccc(Cl)cc2c(-c2ccccc2)c1CC(=O)O.Cl | 0.45 | 0.43 | 0.93 |  |  |  |  |  | 0.53 | 0.38 |  |  |  |  |  |  |  |  |  | 0.96 | Growth Rate ([2]; 18 h, replicate number 2): 0.88
CCCN1CCC(C#N)(NC(=O)[C@H](CC(C)(C)C)NC(=O)N2CCOCC2)CC1 |  | 0.96 |  |  |  |  | 0.97 |  | 0.45 | 0.04 |  |  | 0.82 |  | -0.89 | 0.82 | 0.88 | 0.83 |  |  | 
Nc1ncc2c(n1)-c1c([nH]c3ccc(C4=CCOCC4)cc13)CCC2 |  | 0.74 | 0.98 | 0.96 | 0.76 |  |  |  | 0.71 | 0.56 | -0.64 | -0.33 | 0.72 |  | -0.45 | 0.69 | 0.73 | 0.68 | -0.13 | 0.71 | Growth Rate ([2]; 18 h, replicate number 2): 0.96; Growth Rate ([3]; 6 h, replicate number 2): -0.1; Growth Rate ([3]; 12 h, replicate number 2): -0.09; Growth Rate ([3]; 18 h, replicate number 1): 0.18; Growth Rate ([3]; 18 h, replicate number 2): 0.36; Growth Rate ([3]; 24 h, replicate number 1): 0.37; Growth Rate ([3]; 24 h, replicate number 2): 0.41
